Data as given in patent US20150011566A1, “N-PHENYLPIPERAZINE DERIVATIVES THAT ARE ANTAGONISTS OF A1A, A1D ADRENOCEPTORS AND 5-HT1A RECEPTORS FOR THE TREATMENT OF BENIGN PROSTATE HYPERPLASIA, PHARMACEUTICAL COMPOSITIONS CONTAINING THE SAME” (UNIVERSIDADE FEDERAL DO RIO DE JANEIRO-UFRJ, priority 2012, published 2015).
Read-outs that look alike come from different tables or passages of the source.

Key:
5-HT1A receptors [1] = target: T1, 5-HT1A receptors (Rattus norvegicus, UniProt P19327); test: Binding of [3H]-8-OH-DPAT to 5-HT1A receptors (rat hippocampus membranes)
T1 construct: Intrinsic Activity at Native 5-HT1A Receptors; from tissue; host or cells: rat hippocampus membranes
T1 sequence (P19327 1-422): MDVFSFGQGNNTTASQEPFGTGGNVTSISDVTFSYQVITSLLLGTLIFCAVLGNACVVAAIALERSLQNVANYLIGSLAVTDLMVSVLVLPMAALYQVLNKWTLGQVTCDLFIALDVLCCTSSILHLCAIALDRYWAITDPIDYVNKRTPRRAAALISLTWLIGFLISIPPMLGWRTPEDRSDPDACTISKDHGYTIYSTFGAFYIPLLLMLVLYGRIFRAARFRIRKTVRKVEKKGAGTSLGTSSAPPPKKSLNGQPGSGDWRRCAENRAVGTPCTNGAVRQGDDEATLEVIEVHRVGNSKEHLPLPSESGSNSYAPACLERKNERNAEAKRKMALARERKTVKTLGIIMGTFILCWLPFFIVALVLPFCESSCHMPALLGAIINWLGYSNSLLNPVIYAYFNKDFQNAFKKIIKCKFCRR
Procedure: (§1) Membrane preparations of rat hippocampus according to previously described by HALL et al (1985) and PEROUTKA (1986) were performed. The homogenization and centrifugation steps were performed identically to that described above for receptors α2A and 5-HT2A receptors.
(§2) The binding assays for the 5-HT1A receptors were performed as described previously in the literature and previously standardized in the laboratory through saturation experiments. […] (solvent for dilution of LDT's) for the determination of total binding, or 50 μL non-radioative serotonin at 10 μM to determine the non-specific binding (final volume of 500 μL). Assays were performed in triplicate. […] Assays were performed in triplicate.
(§3) After the incubation period, the reaction was stopped by adding 4 ml of ice-cold solution containing 5 mM Tris (pH 7.4), followed by vacuum filtration on glass fiber filter (GMF 3, Filtrak®) previously soaked with solution 0.5% polyethylenoimine. The filters were washed three times with 4 mL of ice-cold solution containing 5 mM Tris (pH 7.4) under vacuum to remove all free radioligand. Then the filters were dried and placed in vials containing 5 ml scintillation fluid (composition: 4% PPO, 0.1% POPOP w/p in toluene). The radioactivity retained on the filters was then determined in a liquid scintillation counter (Packard Tri-Carb 1600 TR). […] For these receptors were also determined the […] and Ki parameters.

muscarinic receptors = assay type: binding, rat; conditions: Table 14; for Ki: Cheng-Prusoff
5-HT1A receptors [2] = target: T1, 5-HT1A receptors; test: Binding of [3H]p-MPPF with GTP to 5-HT1A receptors; intrinsic activity (Ki low/Ki high); conditions: Table 9; for Ki low/Ki high: estimate of intrinsic activity; for Ki: antagonist radioligand [3H] p-MPPF in the presence of GTP, read-out: Ki low
Procedure: as §1, §2, §3
The GTP presence displaces the GPCR to a state of low affinity (Lahti et al, 1992). The intrinsic activity of a substance can be estimated using GPCR agonist or antagonist radioligand appropriate to define the affinity of the substance in the state of high and low affinity receptor, respectively.

α2A receptors = target: T2, α2A receptors (Rattus norvegicus, UniProt P22909); test: Binding of [3H]RX821002 to α2A receptors (rat cortex membranes)
T2 construct: from tissue; host or cells: rat cortex membranes
T2 sequence (P22909 1-465): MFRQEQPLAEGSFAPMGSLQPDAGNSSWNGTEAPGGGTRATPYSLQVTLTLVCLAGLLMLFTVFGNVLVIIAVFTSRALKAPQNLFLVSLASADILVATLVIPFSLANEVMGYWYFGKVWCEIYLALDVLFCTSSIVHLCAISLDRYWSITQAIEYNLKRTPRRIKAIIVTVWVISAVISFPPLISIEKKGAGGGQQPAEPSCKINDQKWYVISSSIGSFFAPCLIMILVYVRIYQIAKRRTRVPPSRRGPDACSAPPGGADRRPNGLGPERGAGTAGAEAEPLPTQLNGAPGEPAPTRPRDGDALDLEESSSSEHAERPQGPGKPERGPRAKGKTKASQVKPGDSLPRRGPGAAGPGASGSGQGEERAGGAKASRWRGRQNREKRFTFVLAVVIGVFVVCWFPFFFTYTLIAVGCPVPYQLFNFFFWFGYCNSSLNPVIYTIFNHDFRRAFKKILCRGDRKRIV
Procedure: Membrane preparations of rat cortex as described previously in the literature were performed. The organs were homogenized in a Potter with the aid of a motor unit (Fisatom) and Teflon piston in the proportion of 20 parts of 50 mM Tris HCl (pH 7.4 at 4° C.) for one piece of material, three times for 30 seconds each time, at intervals the solution was allowed to stand on ice for 1 minute.
Then it was performed a centrifugation at 900×g for 10 minutes at 4° C. It was obtained a […] which was resuspended in solution cold 50 mM Tris-HCl (pH 7.4) and the same procedure was performed once more. The supernatant was then centrifuged at 48,000×g for 10 minutes at 4° C. yielding a pellet which was resuspended at a ratio of 20 parts of 50 mM Tris HCl (pH 7.4 at 4° C.) for one piece of material, and incubated at 37° C. for 10 minutes in order to remove the endogenous neurotransmitters. Finally, centrifugation two times more at 48,000×g was performed for 10 minutes at 4° C., and then the final pellet was resuspended in a solution of 50 mM Tris-HCl (pH 7.4).
Binding assays for the α2A receptor were performed as described previously in the literature and previously standardized in the laboratory by saturation experiments. […] Incubate for 60 minutes at 30° C., 150 membrane preparation of rat cortex contained 50 μL was suspended in 50 mM Tris-HCl into tubes containing 400 μL intermediate solution ([3H] RX821002 1.25 nM, 50 mM Tris (pH 7.4 at 37° C.) and 50 μL of different concentrations of LDT's (final concentration 10^−7-3×10^−5 M to LDT65-68) or 50 μL of 50 mM Tris-HCl pH 7.4 at 37° C. (solvent for dilution of the LDT's), to determine the total binding or 50 μL nonradioactive bitartrate adrenaline at 100 μM for determining the non-specific bounding (final volume 500 μL). Assays were performed in triplicate.
After the incubation period, the reaction was stopped by adding 4 mL ice cold solution containing 5 mM Tris (pH 7.4), followed by vacuum filtration on glass fiber filter (GMF 3, Filtrak®) previously soaked with solution 0.5% polyethylenoimine. The filters were washed three times with 4 mL of ice-cold solution containing 5 mM Tris (pH 7.4) under vacuum to remove all free radioligand. Then the filters were dried and placed in vials containing 5 ml scintillation fluid (composition: 4% PPO, 0.1% POPOP w/v in toluene). The radioactivity retained on the filters was then determined in a liquid scintillation counter (Packard Tri-Carb 1600 TR). Specific binding of [3H]RX821002 to a2A receptors was defined as the difference between total binding and non-specific binding. To these receptors were determined and IC50 and Ki parameters.

[3] = Table 8, Cheng-Prusoff, read-out: Ki
[4] = Table 9, agonist radioligand [3H] 8-OH-DPAT, read-out: Ki high
[5] = Table 6, Cheng-Prusoff, read-out: Ki

In the case of CCCN1CCN(c2ccccc2OC)CC1 [LDT 63], the “log IC50 (M)” value (5-HT1A receptors [1]; Table 8) is reported as −6.37 ± 0.03 M and the Ki (5-HT1A receptors [1]; [3]) is reported as 191 nM.
For CCCCN1CCN(c2ccccc2OC)CC1 [LDT 64], the “log IC50 (M)” value (5-HT1A receptors [1]; Table 8) was −6.72 ± 0.19 M and the Ki (5-HT1A receptors [1]; [3]) was 84 nM.
CCCCCN1CCN(c2ccccc2OC)CC1 [LDT 65] was tested, and the “-log 1050 (M)” value (muscarinic receptors) was 3.3 ± 0.08 M, the Ki (muscarinic receptors) was 172000 nM and the IC50 (5-HT1A receptors [1]) was 38 nM. The Ki (5-HT1A receptors [1]; Ki (nM), Table 8, Cheng-Prusoff) was 18 nM, the Ki (5-HT1A receptors [1]; Ki high (nM), Table 9, agonist radioligand [3H] 8-OH-DPAT) was 18 nM and the “Ki low/Ki high” value (5-HT1A receptors [2]) was 1.18. The IC50 (α2A receptors) was 2510 nM and the Ki (α2A receptors) was 1500 nM.
In the case of CCCCCCN1CCN(c2ccccc2OC)CC1 [LDT 66], the “-log 1050 (M)” value (muscarinic receptors) is reported as 3.8 ± 0.08 M, the Ki (muscarinic receptors) is reported as 54200 nM and the “log IC50 (M)” value (5-HT1A receptors [1]; Table 8) is reported as −7.93 ± 0.20a M. For the same molecule, the Ki (5-HT1A receptors [1]; [3]) was 5 nM, the Ki (5-HT1A receptors [1]; [4]) was 5 nM and the Ki (5-HT1A receptors [2]) was 9 nM. For the same molecule, the “Ki low/Ki high” value (5-HT1A receptors [2]) was 1.80, the “log IC50 (M)” value (α2A receptors; Table 6) was −5.92 ± 0.06 M and the Ki (α2A receptors; [5]) was 800 nM.
CCCCCCCN1CCN(c2ccccc2OC)CC1 [LDT 67] was tested, and the “-log 1050 (M)” value (muscarinic receptors) was 4.2 ± 0.02 M, the Ki (muscarinic receptors) was 21000 nM and the “log IC50 (M)” value (5-HT1A receptors [1]; Table 8) was −7.42 ± 0.19b M. The Ki (5-HT1A receptors [1]; [3]) was 18 nM, the Ki (5-HT1A receptors [1]; [4]) was 18 nM and the Ki (5-HT1A receptors [2]) was 6.7 nM. The “Ki low/Ki high” value (5-HT1A receptors [2]) was 0.37, the “log IC50 (M)” value (α2A receptors; Table 6) was −6.10 ± 0.06 M and the Ki (α2A receptors; [5]) was 500 nM.
With CCCCCCCCN1CCN(c2ccccc2OC)CC1 [LDT 68] the “-log 1050 (M)” value (muscarinic receptors) was 4.5 ± 0.05 M, the Ki (muscarinic receptors) was 10800 nM and the “log IC50 (M)” value (5-HT1A receptors [1]; Table 8) was −7.70 ± 0.30b M. It also gave a Ki (5-HT1A receptors [1]; [3]) of 9 nM, a Ki (5-HT1A receptors [1]; [4]) of 9 nM and a Ki (5-HT1A receptors [2]) of 3.1 nM. For the same molecule, the “Ki low/Ki high” value (5-HT1A receptors [2]) was 0.34, the “log IC50 (M)” value (α2A receptors; Table 6) was −6.01 ± 0.03 M and the Ki (α2A receptors; [5]) was 600 nM.
CCOc1ccccc1N1CCN(CC)CC1 [LDT 69] was tested, and the “log IC50 (M)” value (5-HT1A receptors [1]; Table 8) was −6.86 ± 0.30 M and the Ki (5-HT1A receptors [1]; [3]) was 62 nM.
With CCN1CCN(c2ccccc2O)CC1 [LDT 70] the “log IC50 (M)” value (5-HT1A receptors [1]; Table 8) was −6.15 ± 0.08 M and the Ki (5-HT1A receptors [1]; [3]) was 316 nM.
CCOc1ccccc1N1CCN(CCc2ccc(OC)c(OC)c2)CC1 [LDT 245] gave an IC50 (5-HT1A receptors [1]) of 9.33 nM, a Ki (5-HT1A receptors [1]; KI (M), Table 7, Cheng-Prusoff) of 3.8 nM and an IC50 (α2A receptors) of 2000 nM. For the same molecule, the Ki (α2A receptors) was 160 nM.
